In patent US8546442B2, “Pyrazolopiperidine compounds as CCR1 receptor antagonists” (Boehringer Ingelheim International GmbH, priority 2010, dated 2013):

Each molecule was assayed against T1, CCR1 (Homo sapiens, UniProt P32246) (assay: calcium flux in CCR1 transfected cells, Method B (Calcium 4 dye, HAMAMATSU FDSS6000)). Conditions: cells stably expressing recombinant CCR1 and G-alpha-16, MIP-1alpha at EC80.
T1 sequence (P32246 1-355): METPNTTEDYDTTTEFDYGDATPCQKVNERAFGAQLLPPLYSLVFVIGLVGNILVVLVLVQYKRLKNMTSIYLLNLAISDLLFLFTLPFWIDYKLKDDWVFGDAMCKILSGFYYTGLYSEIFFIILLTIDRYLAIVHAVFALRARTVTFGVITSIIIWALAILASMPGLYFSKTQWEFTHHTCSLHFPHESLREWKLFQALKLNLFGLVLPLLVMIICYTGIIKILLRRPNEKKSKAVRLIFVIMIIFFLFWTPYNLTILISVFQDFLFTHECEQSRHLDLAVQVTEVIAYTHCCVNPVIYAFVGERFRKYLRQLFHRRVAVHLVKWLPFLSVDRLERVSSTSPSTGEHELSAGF
Assay type: cell-based
Procedure: (§1) Compounds are assessed for the ability to block the interaction of CCR1 and MIP-1α in a functional cellular assay measuring calcium flux in CCR1 transfected cells.
Method B: Non-adherent cells purchased from Chemicon Corporation (HTS005C), stably expressing recombinant CCR1 and G-alpha-16 are grown in RPMI 1640 medium (Mediatech 10-080-CM) supplemented with 10% FBS, 0.4 mg/mL Geneticin and penicillin/streptomycin. On the day of the assay, the cells are loaded with Calcium 4 dye (Molecular Devices R7448) with Probenecid (Invitrogen P346400) at 8E5 cells/mL for 1 hour at room temperature. After 1 hour, they are seeded in a 384-well tissue culture-treated plate at a density of 20,000 cells/well. Appropriately diluted test compound is added to the well to achieve a top concentration of 3,000 nM (diluted 4-fold with 10 doses total). The final concentration of DMSO is 1%. The buffer is HBSS (Invitrogen 14025) with 20 mM HEPES at pH 7.4. The cells incubate 30 minutes at 37 C and then 30 minutes at room temperature. The plates are transferred to the HAMAMATSU FDSS6000 where MIP-1alpha in 1% BSA is added at the EC80 final concentration. All plates must be read within 4 hours of the start of dye-loading. Wells+/−MIP-1alpha containing diluted DMSO instead of compound serve as the controls. Data are analyzed using Activity Base software.

Row | Compound | IC50
1 | C[C@H](NC(=O)N1CCCc2c1cnn2-c1ccc(F)cc1)c1cncc(S(C)(=O)=O)c1 [Example 44, 1-(4-Fluorophenyl)-1,5,6,7-tetrahydro-pyrazolo[4,3-b]pyridine-4-carboxylic acid [(S)-1-(5-methanesulfonyl-pyridin-3-yl)-ethyl]-amide] | 18 nM
2 | C[C@H](NC(=O)N1CCCc2c1cnn2-c1ccc(F)cc1)c1ccc(S(C)(=O)=O)nc1 [Example 52] | 128 nM
3 | CC1CCc2c(cnn2-c2ccc(F)cc2)N1C(=O)NCc1ccnc(S(C)(=O)=O)c1 (stereo not shown) [Example 53] | 1280 nM
4 | CC1CCc2c(cnn2-c2ccc(F)cc2)N1C(=O)N[C@@H](C)c1ccnc(S(C)(=O)=O)c1 (stereo partly shown) [Example 54] | 684 nM
5 | CC[C@H](NC(=O)N1c2cnn(-c3ccc(F)cc3)c2CCC1C(F)(F)F)c1ccnc(S(C)(=O)=O)c1 (stereo partly shown) [Example 58] | 84 nM
6 | CS(=O)(=O)c1cc(C2(NC(=O)N3c4cnn(-c5ccc(F)cc5)c4CCC3C(F)(F)F)CC2)ccn1 (stereo not shown) [Example 64] | 1850 nM
7 | CCC[C@H](NC(=O)N1CCCc2c1cnn2C1CCCCC1)c1ccnc(S(C)(=O)=O)c1 [Example 65] | 330 nM
8 | CCC[C@H](NC(=O)N1CCCc2c1cnn2C1CCCC1)c1ccnc(S(C)(=O)=O)c1 [Example 67] | 194 nM
9 | CCC[C@H](NC(=O)N1c2cnn(-c3ccc(F)cc3)c2CCC1C(F)(F)F)c1ccc(Br)cc1F (stereo partly shown) [Example 68] | 205 nM
10 | CCC[C@H](NC(=O)N1c2cnn(-c3ccc(F)cc3)c2CCC1C(F)(F)F)c1ccc(S(C)(=O)=O)cc1F (stereo partly shown) [Example 69] | 11 nM
11 | CCC[C@H](NC(=O)N1c2cnn(-c3ccc(F)cc3)c2CCC1C)c1ccnc(S(C)(=O)=O)c1 (stereo partly shown) [Example 70] | 5 nM
12 | CCC[C@H](NC(=O)N1CCCc2c1cnn2-c1ccc(Cl)cc1)c1ccnc(S(C)(=O)=O)c1 [Example 71] | 0.3 nM
13 | CCC[C@H](NC(=O)N1CCCCc2c1cnn2-c1ccc(F)cc1)c1ccnc(S(C)(=O)=O)c1 [Example 72] | 344 nM
14 | CCC[C@H](NC(=O)N1CCCCc2c1cnn2-c1ccc(F)cc1)c1cncc(S(C)(=O)=O)c1 [Example 75] | 640 nM
15 | CCC[C@H](NC(=O)N1CC(C(F)(F)F)Cc2c1cnn2-c1ccc(F)cc1)c1ccnc(S(C)(=O)=O)c1 (stereo partly shown) [Example 78] | 4 nM
16 | CCC[C@H](NC(=O)N1CC(C(F)(F)F)Cc2c1cnn2-c1ccc(F)cc1)c1ccnc(S(C)(=O)=O)c1 (stereo partly shown) [Example 79] | 2 nM
17 | CC[C@H](NC(=O)N1c2cnn(-c3ccc(F)cc3)c2CCC1C(F)(F)F)c1ccc(OC)c(S(C)(=O)=O)c1 (stereo partly shown) [Example 82] | 23 nM
18 | C[C@H](NC(=O)N1CC(C(F)(F)F)Cc2c1cnn2-c1ccc(F)cc1)c1ccnc(S(C)(=O)=O)c1 (stereo partly shown) [Example 83] | 1260 nM
19 | CC[C@H](NC(=O)N1c2cnn(-c3ccc(F)cc3)c2CCC1C(F)(F)F)c1ccc(S(C)(=O)=O)c(OC)c1 (stereo partly shown) [Example 84] | 14 nM
20 | CC[C@H](NC(=O)N1c2cnn(-c3ccc(F)cc3)c2CCC1C(F)(F)F)c1ccc(S(C)(=O)=O)c(O)c1 (stereo partly shown) [Example 85] | 23 nM
21 | CCC[C@H](NC(=O)N1CCCc2c1cnn2-c1ccc(F)c(Cl)c1)c1ccnc(S(C)(=O)=O)c1 [Example 86] | 2 nM
22 | CCC[C@H](NC(=O)N1CCc2c1cnn2-c1ccc(F)cc1)c1ccnc(S(C)(=O)=O)c1 [Example 87, 1-(4-Fluorophenyl)-5,6-dihydro-1H-pyrrolo[3,2-c]pyrazole-4-carboxylic acid [(S)-1-(2-methanesulfonyl-pyridin-4-yl)-butyl]-amide] | 10 nM
23 | CCC[C@H](NC(=O)N1CCc2c1cnn2-c1ccc(F)cc1)c1ccnc(C)c1 [Example 88] | 52 nM
24 | CC[C@H](NC(=O)N1CCc2c1cnn2-c1ccc(F)cc1)c1cccc(S(C)(=O)=O)c1 [Example 89] | 34 nM
25 | CCC[C@H](NC(=O)N1c2cnn(-c3ccc(F)cc3)c2CCC1C(F)(F)F)c1cc(F)cc(S(C)(=O)=O)c1 (stereo partly shown) [Example 90] | 6 nM
26 | CCC[C@H](NC(=O)N1c2cnn(-c3ccc(Cl)cc3)c2CCC1C)c1ccnc(S(C)(=O)=O)c1 (stereo partly shown) [Example 93] | 18 nM

Further lines, results first:

Row | IC50 | Compound
27 | 57 nM | CCC[C@H](NC(=O)N1c2cnn(-c3ccc(F)cc3)c2CCC1C(F)(F)F)c1cccc(S(C)(=O)=O)n1 (stereo partly shown) [Example 94]
28 | 6 nM | CCC[C@H](NC(=O)N1c2cnn(-c3ccc(F)cc3)c2CCC1C(F)(F)F)c1ccc(OC)c(S(C)(=O)=O)c1 (stereo partly shown) [Example 95]
29 | 7 nM | CCC[C@H](NC(=O)N1c2cnn(-c3ccc(F)cc3)c2CCC1C(F)(F)F)c1ccc(O)c(S(C)(=O)=O)c1 (stereo partly shown) [Example 96]
30 | 5 nM | CCC[C@H](NC(=O)N1c2cnn(-c3ccc(F)cc3)c2CCC1C(F)(F)F)c1ccc(OC)c(Br)c1 (stereo partly shown) [Example 97]
31 | 1570 nM | CCC[C@H](NC(=O)N1CCCc2c1c(C)nn2-c1ccc(F)cc1)c1ccnc(S(C)(=O)=O)c1 [Example 98]
32 | 1500 nM | CCC[C@H](NC(=O)N1CCCc2c1c(C)nn2-c1ccc(F)cc1)c1cncc(S(C)(=O)=O)c1 [Example 99]
33 | 0.6 nM | CCC[C@H](NC(=O)N1CC(C)Cc2c1cnn2-c1ccc(F)cc1)c1ccnc(S(C)(=O)=O)c1 (stereo partly shown) [Example 102]
34 | 0.7 nM | CCC[C@H](NC(=O)N1CC(C)(C)Cc2c1cnn2-c1ccc(F)cc1)c1ccnc(S(C)(=O)=O)c1 [Example 103]
35 | 57 nM | CCC[C@H](NC(=O)N1c2cnn(-c3ccc(F)cc3)c2CCC1C(F)(F)F)c1ccc(Br)c(OC)c1 (stereo partly shown) [Example 104]
36 | 5 nM | CCC[C@H](NC(=O)N1c2cnn(-c3ccc(F)cc3)c2CCC1C(F)(F)F)c1ccc(S(C)(=O)=O)c(OC)c1 (stereo partly shown) [Example 105]
37 | 11 nM | CCC[C@H](NC(=O)N1c2cnn(-c3ccc(F)cc3)c2CCC1C(F)(F)F)c1ccc(S(C)(=O)=O)c(O)c1 (stereo partly shown) [Example 106]
38 | 8 nM | CCC[C@H](NC(=O)N1c2cnn(-c3ccc(F)cc3)c2CCC1C)c1cccc(S(C)(=O)=O)n1 (stereo partly shown) [Example 107]
39 | 9 nM | CCC[C@H](NC(=O)N1c2cnn(-c3ccc(F)cc3)c2CC1C)c1ccnc(S(C)(=O)=O)c1 (stereo partly drawn) [Example 108, 1-(4-Fluorophenyl)-5-methyl-5,6-dihydro-1H-pyrrolo[3,2-c]pyrazole-4-carboxylic acid [(S)-1-(2-methanesulfonyl-pyridin-4-yl)-butyl]-amide]
40 | 11 nM | CC[C@H](NC(=O)N1c2cnn(-c3ccc(F)cc3)c2CC1C)c1cccc(S(C)(=O)=O)c1 (stereo partly shown) [Example 109]
41 | 22 nM | CCC[C@H](NC(=O)N1c2cnn(-c3ccc(F)cc3)c2CC[C@@H]1C)c1cncc(S(C)(=O)=O)c1 [Example 111]
42 | 0.7 nM | CCC[C@H](NC(=O)N1CC(C(=O)OCC)Cc2c1cnn2-c1ccc(F)cc1)c1ccnc(S(C)(=O)=O)c1 (stereo partly drawn) [Example 114, 1-(4-Fluorophenyl)-4-[(S)-1-(2-methanesulfonyl-pyridin-4-yl)-butylcarbamoyl]-4,5,6,7-tetrahydro-1H-pyrazolo[4,3-b]pyridine-6-carboxylic acid ethyl ester]
43 | 23 nM | CCC[C@H](NC(=O)N1CC(C(=O)O)Cc2c1cnn2-c1ccc(F)cc1)c1ccnc(S(C)(=O)=O)c1 (stereo partly drawn) [Example 115, 1-(4-Fluorophenyl)-4-[(S)-1-(2-methanesulfonyl-pyridin-4-yl)-butylcarbamoyl]-4,5,6,7-tetrahydro-1H-pyrazolo[4,3-b]pyridine-6-carboxylic acid]
44 | 1 nM | CCC[C@H](NC(=O)N1CC(C(=O)NC)Cc2c1cnn2-c1ccc(F)cc1)c1ccnc(S(C)(=O)=O)c1 (stereo partly shown) [Example 116]
45 | 1 nM | CCC[C@H](NC(=O)N1CC(C(=O)NCCO)Cc2c1cnn2-c1ccc(F)cc1)c1ccnc(S(C)(=O)=O)c1 (stereo partly shown) [Example 117]

Each molecule was assayed against T1, CCR1 (assay: calcium flux in CCR1 transfected cells, Method A (Fluo-4 NW, FLIPR TETRA)). Conditions: cells stably expressing recombinant CCR1 and G-alpha-16, MIP-1 alpha at EC80.
Assay type: cell-based
Procedure: as §1
Method A: Non-adherent cells purchased from Chemicon Corporation (HTS005C), stably expressing recombinant CCR1 and G-alpha-16 are grown in RPMI 1640 medium (Mediatech 10-080-CM) supplemented with 10% heat-inactivated FBS, 0.4 mg/mL Geneticin and penicillin/streptomycin. On the day of the assay, the cells are transferred to a beaker and dye-loaded in bulk using a Fluo-4 NW Calcium Assay Kit with probenecid (Invitrogen F36205) at 0.8E6 cells/mL for 1 hour at room temperature. After 1 hour, they are seeded in a 384-well tissue culture-treated plate at a density of 20,000 cells/well. Appropriately diluted test compound is added to the well to achieve a top concentration of 3,000 nM (diluted 4-fold with 10 doses total). The final concentration of DMSO is 1%. The buffer is HBSS (Invitrogen 14025) with 20 mM HEPES at pH 7.4. The cells are allowed to incubate 1 hour in the dark at room temperature. The plates are transferred to the FLIPR TETRA where MIP-1 alpha in 1% BSA is added at the EC80 final concentration. Wells+/−MIP-1 alpha containing diluted DMSO instead of compound serve as the controls. Intracellular calcium flux is recorded on the FLIPR TETRA, using excitation at 470/495 nm and emission at 515/575 nm. Data are analyzed using Activity Base software.

Row | IC50 | Compound
46 | 0.6 nM | CCCC(NC(=O)N1CCCc2c1cnn2-c1ccc(F)cc1)c1cncc(S(C)(=O)=O)c1 (stereo not shown) [Example 24]
